Measured values: PubChem BioAssay AID1963976 (Molecular Pharmacology Branch, DTP, NCI, 2024)
pIC50: −log10 of the molar value. One block for each compound: values may come before it.

System: 435261-313-R-J1-PDC tumor spheroid viability
Assay: Anticancer human tumor 435261-313-R-J1-PDC patient-derived colon adenocarcinoma cell line growth inhibition [PI3K]
Settings: spheroids with HUVEC and MSC; for pIC50: curve of first compound; for viability, T/C: stronger effect = lower value
From the text: Combinatorial screen of targeted agents with the PI3K inhibitors inavolisib, alpelisib, duvelisib, and copanlisib in multi-cell type tumor spheroids
A high-throughput screen of multi-cell type tumor spheroids was designed to identify active combinations of targeted small molecules and PI3K pathway inhibitors. Complex spheroids include a stromal component modeled by human endothelial cells (HUVEC) and fibroblasts modeled by human mesenchymal stem cells (MSCs). The concentration ranges selected for each drug and investigational agent were based upon clinically achievable concentrations if the clinical Cmax of the agent was known.
Compounds. The drugs and investigational agents: inavolisib (NSC800729), alpelisib (NSC765974), duvelisib (NSC772469), copanlisib (NSC816437), ipatasertib (NSC767898), afuresertib (NSC778305), talazoparib (NSC767125), sapanisertib (NSC764658), selumetinib (NSC741078), tovorafenib (DAY101, NSC766906), vemurafenib (NSC761431), ravoxertinib (NSC781343), sotorasib (NSC818433), MRTX1133 (NSC 836407), abemaciclib (NSC 768073), palbociclib (NSC758247), venetoclax (NSC 766270), SY5609 (NSC837396), enzalutamide (NSC755605), and darolutamide (NSC825331), were obtained from the National Cancer Institute (NCI) Developmental Therapeutics Program Chemical Repository. The FDA-approved anticancer drug set is available from the NCI Developmental Therapeutics Program. […] The stock solutions were prepared in dimethyl sulfoxide (DMSO, Sigma-Aldrich, St. Louis, MO, cat. D2650) at 800-fold the tested concentration and stored at -70 degrees C prior to their use. All drugs and investigational agents were tested over a range starting from a high concentration at or near the clinical Cmax and decreasing in half-log increments. If the clinical Cmax for an agent had not been determined, the highest concentration tested was 10 microM.
Cell Culture. All cells were maintained in an incubator at 37 degrees C and 5% CO2 with 95% humidity. The PDC lines were cultured according to standard operating procedures established by the NCI PDMR (https://pdmr.cancer.gov/sops/default.htm). All PDCs were thawed and cultured in Matrigel-coated flasks prepared with a working solution of 1X Ham's F-12 nutrient mix, without supplementation (Invitrogen, Waltham, MA, cat. 11765054), 100 U/mL penicillin-streptomycin (Invitrogen, cat. 15140122), and 2.5% Matrigel (Corning Inc., Corning, NY, cat. 354248) for the first three passages. The 354836-022-R-J1-PDC, 475296-252-R-J1-PDC, and 997726-040-R-J2-PDC lines were cultured in 6A media, which includes advanced DMEM/F-12 (Thermo Fisher Scientific, cat. 12634028), 10 mM HEPES (Thermo Fisher Scientific, cat. 15630080), 1X GlutaMAX supplement (Thermo Fisher Scientific, cat. 35050061), 0.1 mg/mL primocin (InvivoGen, San Diego, CA, cat. ant-pm-2), 10% defined fetal bovine serum, heat inactivated (HyClone Laboratories Inc., Logan, UT, cat. SH30070.03HI), 50% L-WRN conditioned media (ATCC, cat. CRL-3276), 1.25 mM N-Acetyl-L-cysteine (Sigma-Aldrich, cat. A9165), 10 mM nicotinamide (Sigma-Aldrich, cat. N0636), 1X B-27 supplement (Thermo Fisher Scientific, cat. 17504044), 1X N-2 supplement (Thermo Fisher Scientific, cat. 17502048), and 10 microM Y-27632 dihydrochloride (Tocris Bioscience, Bristol, United Kingdom, cat. 1254). The 624824-186-R-J2-PDC line was cultured in 6C/Colon 1B media, which includes all 6A media components plus 50 ng/mL human EGF recombinant protein (Thermo Fisher Scientific, cat. PHG0311). […]

[1] = second compound 0.00316 µM, first compound 0.0316 µM
[2] = second compound 0.00316 µM, first compound 0.1 µM
[3] = second compound 0.01 µM, first compound 0.0316 µM
[4] = second compound 0.01 µM, first compound 0.1 µM
[5] = second compound 0.0316 µM, first compound 0.0316 µM
[6] = second compound 0.0316 µM, first compound 0.1 µM
[7] = second compound 0.1 µM, first compound 0.0316 µM
[8] = second compound 0.1 µM, first compound 0.1 µM
[9] = second compound 0.316 µM, first compound 0.0316 µM
[10] = second compound 0.316 µM, first compound 0.1 µM
[11] = second compound 1 µM, first compound 0.0316 µM
[12] = second compound 1 µM, first compound 0.1 µM

pIC50 (second compound 0.00316 µM): < 7.00
pIC50 (second compound 0.01 µM): < 7.00
pIC50 (second compound 0.0316 µM): 7.16
pIC50 (second compound 0.1 µM): 9.34
pIC50 (second compound 0.316 µM): > 9.50
pIC50 (second compound 1 µM): > 9.50
Compound: CC(=O)c1c(C)c2cnc(Nc3ccc(N4CCNCC4)cn3)nc2n(C2CCCC2)c1=O + CC(Nc1ccc2c(c1)OCCn1cc(N3C(=O)OCC3C(F)F)nc1-2)C(N)=O
viability, T/C (second compound 0.00316 µM, first compound 0.000316 µM): 78.8%
viability, T/C (second compound 0.00316 µM, first compound 0.001 µM): 91.4%
viability, T/C (second compound 0.00316 µM, first compound 0.00316 µM): 92.8%
viability, T/C (second compound 0.00316 µM, first compound 0.01 µM): 82.7%
viability, T/C [1]: 84.2%
viability, T/C [2]: 59.2%
viability, T/C (second compound 0.01 µM, first compound 0.000316 µM): 94.7%
viability, T/C (second compound 0.01 µM, first compound 0.001 µM): 83.6%
viability, T/C (second compound 0.01 µM, first compound 0.00316 µM): 100%
viability, T/C (second compound 0.01 µM, first compound 0.01 µM): 91.7%
viability, T/C [3]: 87.5%
viability, T/C [4]: 68.6%
viability, T/C (second compound 0.0316 µM, first compound 0.000316 µM): 64.2%
viability, T/C (second compound 0.0316 µM, first compound 0.001 µM): 66.7%
viability, T/C (second compound 0.0316 µM, first compound 0.00316 µM): 76.9%
viability, T/C (second compound 0.0316 µM, first compound 0.01 µM): 86.2%
viability, T/C [5]: 69.1%
viability, T/C [6]: 40.4%
viability, T/C (second compound 0.1 µM, first compound 0.000316 µM): 49.2%
viability, T/C (second compound 0.1 µM, first compound 0.001 µM): 52.7%
viability, T/C (second compound 0.1 µM, first compound 0.00316 µM): 38.8%
viability, T/C (second compound 0.1 µM, first compound 0.01 µM): 32.5%
viability, T/C [7]: 33.6%
viability, T/C [8]: 23.6%
viability, T/C (second compound 0.316 µM, first compound 0.000316 µM): 21.7%
viability, T/C (second compound 0.316 µM, first compound 0.001 µM): 22%
viability, T/C (second compound 0.316 µM, first compound 0.00316 µM): 19.3%
viability, T/C (second compound 0.316 µM, first compound 0.01 µM): 21.5%
viability, T/C [9]: 20.5%
viability, T/C [10]: 18.1%
viability, T/C (second compound 1 µM, first compound 0.000316 µM): 16.8%
viability, T/C (second compound 1 µM, first compound 0.001 µM): 17.1%
viability, T/C (second compound 1 µM, first compound 0.00316 µM): 17.7%
viability, T/C (second compound 1 µM, first compound 0.01 µM): 16.5%
viability, T/C [11]: 18.2%
viability, T/C [12]: 12.2%

pIC50 (second compound 0.00316 µM): < 5.00
pIC50 (second compound 0.01 µM): < 5.00
pIC50 (second compound 0.0316 µM): < 5.00
pIC50 (second compound 0.1 µM): > 7.50
pIC50 (second compound 0.316 µM): > 7.50
pIC50 (second compound 1 µM): > 7.50
Compound: CNC(=O)c1ccc(N2C(=S)N(c3ccc(C#N)c(C(F)(F)F)c3)C(=O)C2(C)C)cc1F + CC(Nc1ccc2c(c1)OCCn1cc(N3C(=O)OCC3C(F)F)nc1-2)C(N)=O
viability, T/C [1]: 73.1%
viability, T/C [2]: 95.5%
viability, T/C (second compound 0.00316 µM, first compound 0.316 µM): 74.7%
viability, T/C (second compound 0.00316 µM, first compound 1 µM): 101%
viability, T/C (second compound 0.00316 µM, first compound 3.16 µM): 106%
viability, T/C (second compound 0.00316 µM, first compound 10 µM): 93.2%
viability, T/C [3]: 81.7%
viability, T/C [4]: 92.6%
viability, T/C (second compound 0.01 µM, first compound 0.316 µM): 77.2%
viability, T/C (second compound 0.01 µM, first compound 1 µM): 96%
viability, T/C (second compound 0.01 µM, first compound 3.16 µM): 141%
viability, T/C (second compound 0.01 µM, first compound 10 µM): 123%
viability, T/C [5]: 69.8%
viability, T/C [6]: 77.3%
viability, T/C (second compound 0.0316 µM, first compound 0.316 µM): 57.7%
viability, T/C (second compound 0.0316 µM, first compound 1 µM): 82.9%
viability, T/C (second compound 0.0316 µM, first compound 3.16 µM): 84.6%
viability, T/C (second compound 0.0316 µM, first compound 10 µM): 68.2%
viability, T/C [7]: 48.9%
viability, T/C [8]: 28.5%
viability, T/C (second compound 0.1 µM, first compound 0.316 µM): 44.9%
viability, T/C (second compound 0.1 µM, first compound 1 µM): 51.9%
viability, T/C (second compound 0.1 µM, first compound 3.16 µM): 36.8%
viability, T/C (second compound 0.1 µM, first compound 10 µM): 29.6%
viability, T/C [9]: 22.3%
viability, T/C [10]: 19.2%
viability, T/C (second compound 0.316 µM, first compound 0.316 µM): 15.5%
viability, T/C (second compound 0.316 µM, first compound 1 µM): 24.6%
viability, T/C (second compound 0.316 µM, first compound 3.16 µM): 24%
viability, T/C (second compound 0.316 µM, first compound 10 µM): 17.5%
viability, T/C [11]: 15.5%
viability, T/C [12]: 15.6%
viability, T/C (second compound 1 µM, first compound 0.316 µM): 15.3%
viability, T/C (second compound 1 µM, first compound 1 µM): 15.2%
viability, T/C (second compound 1 µM, first compound 3.16 µM): 18.8%
viability, T/C (second compound 1 µM, first compound 10 µM): 12.8%
